The source made the active and inactive calls.
Legend:
Escherichia coli [1] = experiment: Binding affinity to Escherichia coli DHDPS assessed as formation of purple chromophore after 70 mins by o-aminobenzaldehyde assay using UV-vis spectrophotometric analysis using UV-vis spectrophotometric analysis
Escherichia coli [2] = experiment: Binding affinity to Escherichia coli DHDPS assessed as formation of purple chromophore after 10 to 40 mins by o-aminobenzaldehyde assay
Escherichia coli [3] = experiment: Binding affinity to Escherichia coli DHDPS assessed as formation of purple chromophore after 30 to 60 mins by o-aminobenzaldehyde assay using UV-vis spectrophotometric analysis using LC-MS analysis

Measured: Activity

O=C(O)C1=N[C@H](C(=O)O)C[C@H](O)C1
active: Escherichia coli [1] | Escherichia coli [2] | Escherichia coli [3]
